The text below walks through data of US6334445B1, “Methods and compositions for treatment of ovarian cancer” (Baker Norton Pharmaceuticals, Inc., priority 1997, dated 2002).

Read-outs that look alike come from different tables or passages of the source.

In data set [1] the test system is breast cancer. The conditions noted are these: paclitaxel 135 mg/m^2 in combination with cisplatin 75 mg/m^2; cited from earlier work.
Data set [2] deals with ovarian cancer. Particulars: cited from earlier work.
Data set [3] relates to ovarian carcinoma.
Text: Patients with taxane-resistant ovarian cancer are defined as having (1) progression of disease while receiving taxane therapy; (2) progression within 12 months of taxane therapy; (3) persistent stable disease after six courses of taxane therapy; or (4) persistent stable disease with at least CA-125 rising measurements (to a value of ≧100).
Patients without liver metastases and who had mild liver function abnormalities (SGOT and alkaline phosphatase less than 1.5 times upper normal limit) and a normal bilirubin received a total dose of 140 mg/m^2.
Each mL of sterile solution contains 527 mg polyoxyethylated castor oil (Cremaphor® EL) and 49.7% (w/v) absolute alcohol.
The in-line filter was then connected to the subjects central access device.
The procedure was repeated three more times, for a total 96 hour continuous infusion. The final dose was 140 mg/m^2/96 hours.
Complete response (CR): Complete disappearance of all clinical evidence of disease persisting through the next evaluation period at 6 weeks. Evaluable lesions must have disappeared completely.
Partial Response (PR): At least 50% decrease in the sum of the products of the diameters of all measurable lesions persisting through the next evaluation period at six weeks. In addition, concomitant evaluable lesions must show no evidence of progressive disease or new lesions.
Progressive Disease (PD): 25% or greater progression in the sum of the products of the diameter of any measurable lesion(s) over one cycle of chemotherapy or the appearance of any new lesion consistent with metastatic disease.
For data set [4], the system named is breast cancer. The conditions noted are these: cited from earlier work.
The conditions of data set [5]: infusion times 3 to 24 hours; cited from earlier work.
Data set [6] relates to mammalian cells. The conditions noted are these: 50 nM paclitaxel concentration; cited from earlier work.

`CC(=O)O[C@H]1C(=O)[C@@]2(C)[C@H]([C@H](OC(=O)c3ccccc3)[C@]3(O)C[C@H](OC(=O)[C@H](O)[C@@H](NC(=O)c4ccccc4)c4ccccc4)C(C)=C1C3(C)C)[C@]1(OC(C)=O)CO[C@@H]1C[C@@H]2O` [paclitaxel, 5β, 20-epoxy-1 ,2α4,7β10β13α-hexahydroxytax-11-en-9-one 4, 10-diacetate 2-benzoate 12-ester with (2R,3S)-Nbenzoyl-3-phenylisososerine]: the response rate in data set [1] is recorded as 79%; in data set [2] (135 mg/m^2 every three weeks), 15%; in data set [2] (175 mg/m^2 every three weeks), 20%; in data set [3] (partial responses, 14 patients, 96 hour infusion), 21%; in data set [4] (doses of 250 mg/m^2 with G-CSF, single agent) it was 36-71%; in data set [4] (doses of 135 to 175 mg/m^2, single agent) it was 13-37%. In addition, the “time to tumor progression” value in data set [2] (higher dose (175 mg/m^2)) is given as 19 weeks; in data set [2] (lower dose (135 mg/m^2)), 14 weeks. Further, the partial responses in data set [3] (of 14 patients, 140 mg/m^2 over 96 hour infusion every 21 days) is 3. Also, the “patients with stable disease” value in data set [3] (of 14 patients, 96 hour infusion) is recorded as “One”. In data set [3] (partial responses plus stable disease, 14 patients, 96 hour infusion), the overall response rate is given as 29%. Also, the dose limiting toxicity result in data set [5] is “reversible myelosuppression”. In data set [6], the “effect on microtubules and cells” value is “significant increase in microtubule number”.
